In patent US20260184663A1, “INDENE COMPOUNDS, PHARMACEUTICAL COMPOSITIONS THEREOF, AND THEIR THERAPEUTIC APPLICATIONS” (NucMito Pharmaceuticals co. Ltd., priority 2022, published 2026) one finds inhibition data, which are given here for seven compounds.

Each structure is given as a SMILES string.

Holding throughout (assay type): cell-based
The test system of assay [1] is HepG2 (liver cancer). Put plainly: Antiproliferative activity (CCK-8 cell viability), HepG2. The following applies: Homo sapiens, 72 h, read-out: Antiproliferative activity in cancerous cells, HepG2 (inhibition of cell growth); for inhibition at 3.3 µM: Compound concentration: 3.3 μM; for inhibition at 10 µM: Compound concentration: 10 μM. How it is done:
(§1) The antiproliferative activity of a compound was determined in the following cell lines: MDA-MB-231 (breast cancer), HepG2 (liver cancer), SW480 (colon cancer), B16F10 (malignant melanoma), A431 (epidermoid carcinoma), A549 (lung adenocarcinoma), and HeLa (cervical cancer). MDA-MB-231, HepG2, SW480, B16F10, and A431 cells were cultured in Dulbecco's modified Eagle's medium (DMEM) containing 10% fetal bovine serum (FBS). HeLa cells were cultured in MEM/EBSS (MEM) containing 10% FBS. A549 cells were maintained in Kaighn's modification of Ham's F-12 medium containing 10% FBS. A Cell Counting Kit-8 (CCK-8) was used to measure the cell viability of different cells following treatment with the compound.
(§2) Briefly cells were seeded in a 96-well plate at a density of 2,000-5,000 cells/well. Following attachment, the cells were treated with the compound in media at a compound concentration of 3.3 μM, 10 μM, or 30 μM. After the cells were incubated at 37° C. for 72 h, a CCK-8 solution (10 μL) was added to each well. After incubation at 37° C. for 4 h, the absorbance value of each well was determined using a multi-well plate reader at 450 nm. The wells treated with DMSO were taken as a vehicle control. Data were also obtained similarly for all the replicates and the percentage of cell viability was determined with respect to the DMSO-treated cells. The results are summarized in Tables 2-4, wherein A represents no less than […] of cell growth; B represents no less than 30% but less than 50% inhibition of cell growth; and C represents less than 30% inhibition of cell growth.

Assay [2] deals with A431 (epidermoid carcinoma). Put plainly: Antiproliferative activity (CCK-8 cell viability), A431. The following applies: Homo sapiens, 72 h; for inhibition at 3.3 µM: A-431, Compound concentration: 3.3 μM; for inhibition at 3.3 µM / inhibition at 10 µM: read-out: Antiproliferative activity in cancerous cells, A431 (inhibition of cell growth); for inhibition at 10 µM: A-431, Compound concentration: 10 μM; for inhibition at 30 µM: A-431, Compound concentration: 30 μM, read-out: Antiproliferative activity in cancerous cells, A431. How it is done: as §1, §2

Assay [3] concerns B16F10 (malignant melanoma). In words: Antiproliferative activity (CCK-8 cell viability), B16F10. As to conditions: Mus musculus, 72 h, read-out: Antiproliferative activity in cancerous cells, B16F10 (inhibition of cell growth); for inhibition at 3.3 µM: B16-F10, Compound concentration: 3.3 μM; for inhibition at 10 µM: B16-F10, Compound concentration: 10 μM. How it is done:
as §1, §2

Assay [4] concerns MDA-MB-231 (breast cancer). Put plainly: Antiproliferative activity (CCK-8 cell viability), MDA-MB-231. The following applies: Homo sapiens, 72 h, read-out: Antiproliferative activity in cancerous cells, MDA-MB-231 (inhibition of cell growth); for inhibition at 3.3 µM: Compound concentration: 3.3 μM; for inhibition at 10 µM: Compound concentration: 10 μM. The protocol: as §1, §2

The subject of assay [5] is A549 (lung adenocarcinoma). Put plainly: Antiproliferative activity (CCK-8 cell viability), A549. As to conditions: Homo sapiens, 72 h, read-out: Antiproliferative activity in cancerous cells, A549 (inhibition of cell growth); for inhibition at 3.3 µM: Compound concentration: 3.3 μM; for inhibition at 10 µM: Compound concentration: 10 μM. How it is done:
as §1, §2

Assay [6] concerns HeLa (cervical cancer). In words: Antiproliferative activity (CCK-8 cell viability), HeLa. As to conditions: Homo sapiens, 72 h, read-out: Antiproliferative activity in cancerous cells, HELA (inhibition of cell growth); for inhibition at 3.3 µM: Compound concentration: 3.3 μM; for inhibition at 10 µM: Compound concentration: 10 μM. How it is done: as §1, §2
The test system of assay [7] is SW480 (colon cancer). Put plainly: Antiproliferative activity (CCK-8 cell viability), SW480. As to conditions: Homo sapiens, 72 h; for inhibition at 3.3 µM: Compound concentration: 3.3 μM; for inhibition at 3.3 µM / inhibition at 10 µM: read-out: Antiproliferative activity in cancerous cells, SW480 (inhibition of cell growth); for inhibition at 10 µM: Compound concentration: 10 μM. The protocol: as §1, §2

`CC1=C(CC(=O)O)c2cc(F)ccc2/C1=C\c1cccc(C[S+]([O-])c2ccc(F)cc2)c1` (stereo not drawn) [B50, (Z)-2-(5-Fluoro-1-(3-(((4-fluorophenyl)sulfinyl)methyl)benzylidene)-2-methyl-1H-inden-3-yl)acetic acid]: the inhibition at 3.3 µM was under 30% in assay [1]; under 30% in assay [2]; at least 50% in assay [3]; 30 to 50% in assay [4]; under 30% in assay [5]; under 30% in assay [6]. In addition, the inhibition at 3.3 µM in assay [7] was under 30%. The inhibition at 10 µM in assay [1] was under 30%; in assay [2] it was under 30%; in assay [3], at least 50%; in assay [4], at least 50%; in assay [5] it was under 30%; in assay [6] it was 30 to 50%. For the same compound, the inhibition at 10 µM in assay [7] lay within 30 to 50%. Moreover, the inhibition at 30 µM in assay [2] was 30 to 50%.
`CC1=C(CC(=O)O)c2cc(F)ccc2/C1=C\c1ccc([S+]([O-])c2ccc(F)cc2)cc1` (stereo not drawn) [C45, (Z)-2-(5-Fluoro-1-(4-((4-fluorophenyl)sulfinyl)benzylidene)-2-methyl-1H-inden-3-yl)acetic acid]: the inhibition at 3.3 µM in assay [1] was under 30%; in assay [2] it was under 30%; in assay [3] it was at least 50%; in assay [4] it was 30 to 50%; in assay [5], under 30%; in assay [6], under 30%. The inhibition at 3.3 µM in assay [7] was under 30%. In addition, the inhibition at 10 µM in assay [1] was under 30%; in assay [2], under 30%; in assay [3] it was at least 50%; in assay [4] it was at least 50%; in assay [5], 30 to 50%; in assay [6], at least 50%. Also, the inhibition at 10 µM in assay [7] lay within 30 to 50%. For the same compound, the inhibition at 30 µM in assay [2] is under 30%.
With `CC1=C(CC(=O)O)c2cc(F)ccc2/C1=C\c1ccc(C(=O)c2ccccc2)cc1` [C307, (Z)-2-(1-(4-Benzoylbenzylidene)-5-fluoro-2-methyl-1H-inden-3-yl)acetic acid], the inhibition at 3.3 µM in assay [1] was 30 to 50%; in assay [2], 30 to 50%; in assay [3], under 30%; in assay [4] it was 30 to 50%; in assay [5] it was under 30%; in assay [6] it was under 30%. Also, the inhibition at 3.3 µM in assay [7] is under 30%. Also, the inhibition at 10 µM in assay [1], in assay [2], in assay [3], in assay [4], in assay [5] and in assay [6] was at least 50% each time. Besides, the inhibition at 10 µM in assay [7] was at least 50%.
In the case of `CC1=C(CC(=O)O)c2cc(Cl)ccc2/C1=C\c1ccc(COCc2ccc(F)cc2)cc1` [B148, (Z)-2-(5-Chloro-1-(4-(((4-fluorobenzyl)oxy)methyl)benzylidene)-2-methyl-1H-inden-3-yl)acetic acid], the inhibition at 3.3 µM in assay [1] was under 30%; in assay [2], at least 50%; in assay [3] it was under 30%; in assay [4] it was 30 to 50%; in assay [5], 30 to 50%; in assay [6] it was 30 to 50%. In assay [7], the inhibition at 3.3 µM is at least 50%. Moreover, the inhibition at 10 µM in assay [1] is at least 50%; in assay [2], at least 50%; in assay [3] it was under 30%; in assay [4], 30 to 50%; in assay [5], at least 50%; in assay [6], at least 50%. Besides, in assay [7], the inhibition at 10 µM is at least 50%.
For the compound `CCc1ccc(COCc2ccc(/C=C3/C(C)=C(CC(=O)O)c4cc(F)ccc43)cc2)cc1` [B151, (Z)-2-(1-(4-(((4-Ethylbenzyl)oxy)methyl)benzylidene)-5-fluoro-2-methyl-1H-inden-3-yl)acetic acid], the inhibition at 3.3 µM was under 30% in assay [1]; at least 50% in assay [2]; under 30% in assay [3]; 30 to 50% in assay [4]; 30 to 50% in assay [5]; under 30% in assay [6]. For the same compound, the inhibition at 3.3 µM in assay [7] was in the range of 30 to 50%. For the same compound, the inhibition at 10 µM is at least 50% in assay [1]; at least 50% in assay [2]; under 30% in assay [3]; at least 50% in assay [4]; at least 50% in assay [5]; at least 50% in assay [6]. In addition, in assay [7], the inhibition at 10 µM was at least 50%.
`CC1=C(CC(=O)O)c2cc(F)c(F)cc2/C1=C\c1ccc(COc2ccc(F)cc2)cc1` [B53, (Z)-2-(5,6-Difluoro-1-(4-((4-fluorophenoxy)methyl)benzylidene)-2-methyl-1H-inden-3-yl)acetic acid]: the inhibition at 3.3 µM in assay [1] was under 30%; in assay [2], 30 to 50%; in assay [3], 30 to 50%; in assay [4] it was at least 50%; in assay [5], under 30%; in assay [6], under 30%. The inhibition at 3.3 µM in assay [7] was in the range of 30 to 50%. The inhibition at 10 µM is under 30% in assay [1]; 30 to 50% in assay [2]; at least 50% in assay [3]; at least 50% in assay [4]; 30 to 50% in assay [5]; under 30% in assay [6]. The inhibition at 10 µM in assay [7] was in the range of 30 to 50%. Further, the inhibition at 30 µM lay in the range of 30 to 50% in assay [2] and 30 to 50% in assay [7] (Compound concentration: 30 μM, read-out: Antiproliferative activity in cancerous cells, SW480).
In the case of `CC1=C(CC(=O)O)c2cc(F)ccc2/C1=C\c1ccc(CCOC2CCCCO2)cc1` (stereo not drawn) [B47, (Z)-2-(5-Fluoro-2-methyl-1-(4-(2-((tetrahydro-2H-pyran-2-yl)oxy)ethyl)-benzylidene)-1H-inden-3-yl)acetic acid], the inhibition at 3.3 µM in assay [1] was 30 to 50%; in assay [2], 30 to 50%; in assay [3] it was at least 50%; in assay [4], at least 50%; in assay [5], under 30%; in assay [6] it was at least 50%. Moreover, the inhibition at 3.3 µM in assay [7] was under 30%. Further, the inhibition at 10 µM was at least 50% in assay [1]; 30 to 50% in assay [2]; at least 50% in assay [3]; at least 50% in assay [4]; at least 50% in assay [5]; at least 50% in assay [6]. For the same compound, the inhibition at 10 µM in assay [7] was at least 50%.
